Holding throughout (assay type): in vivo
Series [1] relates to ghrelin-induced increase of GH. In words: Ghrelin-induced increase of growth hormone in rats. The note with it: 30 mg/kg HM04 fumarate salt p.o. 2 hours before 15 μg/kg ghrelin i.v., 15 minutes after ghrelin. As to the method:
Rats were divided into four groups: 1) 1 ml/kg saline plus 10 ml/kg 0.5% CMC p.o. (n=6); 2) 15 μg/kg ghrelin i.v. plus 10 ml/kg 0.5% CMC p.o. (n=6); 3) 30 mg/kg HM04 fumarate salt p.o. 2 hours before 15 μg/kg ghrelin i.v. (n=6); 4) 10 mg/kg ghrelin antagonist R011 i.p. 30 minutes before 15 μg/kg ghrelin i.v. (n=6). Blood was collected as 100 μl samples at time 0 and at 15 minutes after ghrelin injection. Rats were anesthetized with 64.8 mg/kg sodium pentobarbital. A catheter filled with heparinized saline solution was inserted in the left femoral artery for blood collection and fitted with an extension tube, 1-mL sampling syringe, and a 3-way cock to allow excess blood to return.
Plasma levels of growth hormone (GH) were determined using Rat GH ELISA (Millipore, Catalog No. EZRMGH-45K). Measurements were performed in duplicate. […] One-way and two-way ANOVA test was used to compare differences between groups. All values are presented as mean±SEM. One-way ANOVA was performed followed by Turkey's post hoc test where significance was indicated by p values<0.05 or p values<0.01.

Series [2] concerns Snord116+/− (Het) mice and wild-type (WT) littermates. In words: Food intake and body weight after daily administration in Prader-Willi mouse model. The text has this:
The effect of HM04 fumarate salt on food intake behavior and glucose tolerance was investigated in the Snord116+/−(Het) mouse genetic model of Prader-Willi syndrome (Het mouse) compared to wild-type (WT) littermates. Since D2R agonists suppress food intake, the FDA approved D2R agonist cabergoline was used as an experimental control. Phenotypic characteristics of this PWS mouse model include hyperphagia, postnatal growth retardation, high ghrelin, and low growth hormone. Ding F., et al. SnoRNA Snord116 (Pwcr1/MBII-85) deletion causes growth deficiency and hyperphagia in mice. PloS one. 2008; 3(3):e1709. These PWS mice eat more frequently than WT littermates, particularly during the light cycle and are more motivated to work for food (more level presses) (data not shown).
Food intake and body weight were measured daily.

Series [3] is described as follows: Rat pharmacokinetic study, single oral HM04 fumarate salt 3, 10, 30 mg/kg (Example 10). The note with it: male, Sprague Dawley, plasma, 3 mg/kg intravenous, four rats, read-out: mean AUC following intravenous administration.
[4] abbreviates: 6-month-old Het mice, HM04 10 mg/kg i.p. daily at 07.00 hours for 10 days.
Setting [5] is: 6-month-old WT mice, HM04 10 mg/kg i.p. daily at 07.00 hours for 10 days.
The mark [6] stands for this setting: 8-month-old Het mice, HM04 30 mg/kg oral daily at 07.00 hours for 5 days.
Where [7] appears, read: 8-month-old Het mice, HM04 30 mg/kg oral daily at 18.00 hours for 5 days.
Setting [8] is: 8-month-old WT mice, HM04 30 mg/kg oral daily at 07.00 hours for 5 days.

Turning to `CN1CCC(N(C)C(=O)N[C@H](c2ccc(-c3cnccn3)c(Cl)c2Cl)C(F)(F)F)CC1` [HM04, (R)-3-(1-(2,3-dichloro-4-(pyrazin-2-yl)phenyl)-2,2,2-trifluoroethyl)-1-methyl-1-(1-methylpiperidin-4-yl)urea], the “inhibition of ghrelin-induced increase of GH” value in series [1] is on record as 35%. Moreover, the body weight result in series [2] (setting [4]) is “no apparent effect”; in series [2] (setting [5]), “no apparent effect”; in series [2] (setting [6]), “unaffected”; in series [2] (setting [8]) it was “No reduction in food intake or body weight”. The food intake result is listed as “no apparent effect” in series [2] (setting [4]); “no apparent effect” in series [2] (setting [5]); “significant decrease in food intake was observed by day 2, but not on subsequent days” in series [2] (setting [6]); “No reduction in food intake” in series [2] (setting [8]). Also, the “food consumption during the dark cycle” value in series [2] (setting [7]) is reported as “suppression of food consumption was not observed”; in series [2] (8-month-old WT mice, HM04 30 mg/kg oral daily at 18.00 hours for 5 days) it was “suppression of food consumption was not observed”. Further, the “food intake during the subsequent light cycle (06.00-18.00)” value in series [2] (setting [7]) is “food intake was lower in HM04-treated Het mice, but not WT mice on days 2, 3, 4, and 5 and reached significance on day 5”.
Regarding `CN1CCC(N(C)C(=O)N[C@H](c2ccc(-c3cnccn3)c(Cl)c2Cl)C(F)(F)F)CC1.O=C(O)/C=C/C(=O)O` [HM04 fumarate salt, (R)-3-(1-(2,3-dichloro-4-(pyrazin-2-yl)phenyl)-2,2,2-trifluoroethyl)-1-methyl-1-(1-methylpiperidin-4-yl)urea fumarate salt], the AUC in series [3] turned out to be 1760 ± 196 ng·h/mL.

Values taken from US11299472B2, “Fumarate salt of (R)-3-(1-(2,3-dichloro-4-(pyrazin-2-yl)phenyl)-2,2,2- trifluoroethyl)-1-methyl-1-(1-methylpiperidin-4-yl) urea, methods of preparation, and uses thereof” (Helsinn Healthcare SA, priority 2017, dated 2022).
